Data taken from ChEMBL document CHEMBL3045312, “Projuvenoids: synthesis and biological evaluation of sulfenylated, sulfinylated, and sulfonylated carbamates” (Arch Insect Biochem Physiol, 1996).
Calls of active or inactive are those of the source. The calls are words filed in the database; no cut-off is given here.

Tests used:
[1] = test system: Pieris brassicae; experiment: Juvenile hormone mimicking activity against fifth-instar larval stage of Pieris brassicae reared on cabbage plants assessed as morphogenetic changes measured per larvae applied topically to dorsal surface of larvae measured post pupal ecdysis; format: functional
[2] = test system: Sitophilus oryzae; experiment: Juvenile hormone mimicking activity against adult Sitophilus oryzae (rice weevil) infested wheat kernels assessed as suppression of progeny development at 1 ppm applied through diet for 21 days measured after 9 weeks; format: functional, organism-based
[3] = test system: Pieris brassicae; experiment: Ratio of fenoxycarb ID50 to compound ID50 for fifth-instar larval stage of Pieris brassicae; format: functional
[4] = test system: Bemisia tabaci; experiment: Juvenile hormone mimicking activity against Bemisia tabaci (sweet potato whitefly) infested cotton assessed as suppression of adult emergence at 100 g/ha applied as emulsifiable concentrate through spray measured on day 12 under field conditions (reference value: 89%); format: functional
[5] = test system: Bemisia tabaci; experiment: Juvenile hormone mimicking activity against Bemisia tabaci (sweet potato whitefly) infested cotton assessed as suppression of adult emergence at 50 g/ha applied as emulsifiable concentrate through spray measured on day 12 under field conditions (reference value: 89%); format: functional
[6] = test system: Bemisia tabaci; experiment: Juvenile hormone mimicking activity against Bemisia tabaci (sweet potato whitefly) infested cotton assessed as suppression of adult emergence at 200 g/ha applied as emulsifiable concentrate through spray measured on day 12 under field conditions (reference value: 89%); format: functional
[7] = test system: Bemisia tabaci; experiment: Juvenile hormone mimicking activity against Bemisia tabaci (sweet potato whitefly) infested cotton assessed as suppression of nymph emergence at 50 g/ha applied as emulsifiable concentrate through spray measured on day 12 under field conditions (reference value: 92%); format: functional
[8] = test system: Bemisia tabaci; experiment: Juvenile hormone mimicking activity against Bemisia tabaci (sweet potato whitefly) infested cotton assessed as suppression of nymph emergence at 100 g/ha applied as emulsifiable concentrate through spray measured on day 12 under field conditions (reference value: 92%); format: functional
[9] = test system: Bemisia tabaci; experiment: Juvenile hormone mimicking activity against Bemisia tabaci (sweet potato whitefly) infested cotton assessed as suppression of nymph emergence at 200 g/ha applied as emulsifiable concentrate through spray measured on day 12 under field conditions (reference value: 92%); format: functional
[10] = Lipophilicity, log P of the compound; format: physicochemical; conditions: octanol/water
[11] = test system: Sitophilus oryzae; experiment: Juvenile hormone mimicking activity against adult Sitophilus oryzae (rice weevil) infested wheat kernels assessed as suppression of progeny development at 1 to 100 ppm applied through diet for 21 days measured after 9 weeks; format: functional, organism-based
[12] = test system: Bemisia tabaci; experiment: Juvenile hormone mimicking activity against Bemisia tabaci (sweet potato whitefly) infested cotton assessed as suppression of adult emergence at 200 g/ha applied as wettable powder through spray measured on day 12 under field conditions (reference value: 89%); format: functional
[13] = test system: Bemisia tabaci; experiment: Juvenile hormone mimicking activity against Bemisia tabaci (sweet potato whitefly) infested cotton assessed as suppression of nymph emergence at 400 g/ha applied as wettable powder through spray measured on day 12 under field conditions (reference value: 92%); format: functional
[14] = test system: Bemisia tabaci; experiment: Juvenile hormone mimicking activity against Bemisia tabaci (sweet potato whitefly) infested cotton assessed as suppression of adult emergence at 100 g/ha applied as wettable powder through spray measured on day 12 under field conditions (reference value: 89%); format: functional
[15] = test system: Bemisia tabaci; experiment: Juvenile hormone mimicking activity against Bemisia tabaci (sweet potato whitefly) infested cotton assessed as suppression of nymph emergence at 200 g/ha applied as wettable powder through spray measured on day 12 under field conditions (reference value: 92%); format: functional
[16] = test system: Bemisia tabaci; experiment: Juvenile hormone mimicking activity against Bemisia tabaci (sweet potato whitefly) infested cotton assessed as suppression of adult emergence at 400 g/ha applied as wettable powder through spray measured on day 12 under field conditions (reference value: 89%); format: functional
[17] = test system: Bemisia tabaci; experiment: Juvenile hormone mimicking activity against Bemisia tabaci (sweet potato whitefly) infested cotton assessed as suppression of nymph emergence at 100 g/ha applied as wettable powder through spray measured on day 12 under field conditions (reference value: 92%); format: functional

| SMILES | ID50 [1] [ng] | Activity [2] | other results |
| --- | --- | --- | --- |
| CCCCCCCCCCCCCCCCCN(SN(CCOc1ccc(Oc2ccccc2)cc1)C(=O)OCC)C(=O)OCc1ccccc1 | 6.4 | Active | – |
| CCCCCCCCOC(=O)N(C)SN(CCOc1ccc(Oc2ccccc2)cc1)C(=O)OCC | 3.4 | – | Ratio [3]: 6 |
| CCOC(=O)N(CCOc1ccc(Oc2ccc(Cl)cc2)cc1)SN(CCOc1ccc(Oc2ccc(Cl)cc2)cc1)C(=O)OCC | 26 | – | – |
| CC(C)OC(=O)N(CCOc1ccc(Oc2ccccc2)cc1)[S+]([O-])N(CCOc1ccc(Oc2ccccc2)cc1)C(=O)OC(C)C | 20 | – | – |
| CC(C)OC(=O)N(CCOc1ccc(Oc2ccccc2)cc1)SN(CCOc1ccc(Oc2ccccc2)cc1)C(=O)OC(C)C | 22 | – | – |
| CCOC(=O)N(CCOc1ccc(Oc2ccccc2)cc1)SN(CCOc1ccc(Oc2ccccc2)cc1)C(=O)OCC | 2.8 | Active | – |
| CC(C)OC(=O)NCCOc1ccc(Oc2ccccc2)cc1 | 24 | – | – |
| CCOC(=O)N(CCOc1ccc(Oc2ccccc2)cc1)[S+]([O-])N(CCOc1ccc(Oc2ccccc2)cc1)C(=O)OCC | 2.2 | Active | Activity [4]: 31%; Activity [5]: 36%; Activity [6]: 19%; Activity [7]: 47%; Activity [8]: 33%; Activity [9]: 16% |
| COC(C)(C)CCC[C@H](C)C/C=C/C(C)=C/C(=O)OC(C)C [METHOPRENE] | 60 | – | logP [10]: 5.21; Activity [11]: Active |
| CCOC(=O)NCCOc1ccc(Oc2ccccc2)cc1 [PHENOXYCARB] | 21 | Active | logP [10]: 4.07; Activity [12]: 29%; Activity [13]: 21%; Activity [14]: 43%; Activity [15]: 34%; Activity [16]: 20%; Activity [17]: 41% |
| CCOC(=O)N(CCOc1ccc(Oc2ccccc2)cc1)S(=O)(=O)N(CCOc1ccc(Oc2ccccc2)cc1)C(=O)OCC | >100 | – | – |
| CCOC(=O)CC(SP(=S)(OC)OC)C(=O)OCC (configuration not stated) | – | – | Activity [11]: Active |
| CCCCCCCCCCCCOC(=O)N(CCCC)SN(CCOc1ccc(Oc2ccccc2)cc1)C(=O)OCC | 2.8 | Active | Ratio [3]: 6 |
| CCOC(=O)NCCOc1ccc(Oc2ccc(Cl)cc2)cc1 | 22 | – | – |
| CCOC(=O)N(CCOc1ccc(Oc2ccc(Cl)cc2)cc1)[S+]([O-])N(CCOc1ccc(Oc2ccc(Cl)cc2)cc1)C(=O)OCC | 9 | – | – |
